The text below walks through data of US4977146A, “2,5-diaryl tetrahydrofurans and analogs thereof as PAF antagonists” (Merck & Co., Inc., priority 1990, dated 1990).

The assay deals with T1, PAF specific receptor binding site on human platelet membranes (Homo sapiens, UniProt P25105).
T1 construct: 100 μg of the platelet plasma membrane suspension; from tissue; host or cells: human platelets (plasma membranes)
As to the kind of experiment: inhibition of the binding of [3H] N-methylcarbamoyl-PAF to human platelet membranes. To be noted: trans configuration, read-out: % inhibitor* (% inhibition of the binding of [3H] N-methylcarbamoyl-PAF to human platelet membranes). The method, then: The ability of a compound of formula (I) to inhibit the PAF binding to its specific receptor binding site on rabbit or human platelet or PMN plasma membranes was measured by a recently developed assay.
The inhibition of ^3 [H] PAF or ^3 [H]N-methylcarbamoyl-PAF binding to the human or rabbit platelet or PMN plasma membrane by a PAF antagonist of formula (I) was determined by a method employing isotopic labeling and filtration techniques. Generally, a series of Tris-buffered solutions of the selected antagonist at predetermined concentrations were prepared. […] Two control samples, one of which (C1) contains all the ingredients described above except the antagonist and the other (C2) contains C1 plus a 1000-fold excess of unlabeled PAF, were also prepared and incubated simultaneously with the test samples. After the incubation was completed, the contents of each test tube were filtered in vacuo through a Whatman GF/C fiberglass filter and the residue washed rapidly several times with a total of 20 ml cold (0°-5° C.) Tris-buffer solution. Each washed residue was then suspended in 10 ml scintillation solution (Aquasol 2, New England Nuclear, Connecticut) and the radioactivity was counted in a Packard Tri-Carb 460CD Liguid Scintillation System.

T1 sequence (P25105 whole entry): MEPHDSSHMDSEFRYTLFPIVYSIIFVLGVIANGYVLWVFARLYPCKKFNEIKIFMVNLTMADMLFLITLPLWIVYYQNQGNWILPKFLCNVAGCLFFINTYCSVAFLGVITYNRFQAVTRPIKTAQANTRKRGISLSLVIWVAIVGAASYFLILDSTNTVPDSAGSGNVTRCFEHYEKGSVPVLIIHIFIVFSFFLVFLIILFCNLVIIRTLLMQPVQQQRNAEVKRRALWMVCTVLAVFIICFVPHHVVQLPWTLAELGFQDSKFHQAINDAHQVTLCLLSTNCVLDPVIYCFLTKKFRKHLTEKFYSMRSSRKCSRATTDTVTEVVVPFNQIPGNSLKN

Broadly, the inhibition is the relative decrease from the control value, in per cent. For `CCCOc1cc([C@@H]2CC[C@@H](c3cc(OC)c(OC)c(OC)c3)O2)cc(S(=O)(=O)CCN(C)C)c1OCCC` (relative stereo) [trans-2-[3-(2-N,N-Dimethylaminoethylsulfonyl)-4,5-di-n-propoxyphenyl]-5-(3,4,5-trimethoxyphenyl)tetrayhydrofuran], the inhibition came out at 58%.

Regarding `CCCOc1c(OCCCO)cc([C@@H]2CC[C@@H](c3cc(OC)c(OC)c(OC)c3)O2)cc1S(=O)(=O)CC(C)NC` (relative stereo) [trans-2-[3-(2-N-Methylaminopropylsulfonyl)-4-n-propoxy-5-(3-hydroxypropoxy)phenyl]-5-(3,4,5-trimethoxyphenyl)tetrahydrofuran], the inhibition was determined as 38%.

For the molecule `CCCOc1cc([C@H]2CC[C@H](c3cc(OC)c(OC)c(OC)c3)O2)cc(S(=O)(=O)CCN)c1OCCC` (relative stereo) [trans-2-[3-(2-Aminoethylsulfonyl)-4,5-dipropoxyphenyl]-5-(3,4,5-trimethoxyphenyl)tetrahydrofuran], the inhibition was found to be 27%.

On to `CCCOc1c(OCCCO)cc([C@@H]2CC[C@@H](c3cc(OC)c(OC)c(OC)c3)O2)cc1S(=O)(=O)CC(C)NCC` (relative stereo) [trans-2-[3-(2-N-Ethylaminopropylsulfonyl)-4-propoxy-5-(3-hydroxypropoxy)phenyl]-5-(3,4,5-trimethoxyphenyl)tetrahydrofuran], for which the inhibition was 36%.

For `CCCOc1c(OCCCO)cc([C@@H]2CC[C@@H](c3cc(OC)c(OC)c(OC)c3)O2)cc1S(=O)(=O)CCN(C)C` (relative stereo) [trans-2-[3-(2-N,N-Dimethylaminoethylsulfonyl)-4-n-propoxy-5-(3-hydroxypropoxy)phenyl]-5-(3,4,5-trimethoxyphenyl)tetrahydrofuran], the inhibition is 46%.

In the case of `CCCOc1c(OCC(C)O)cc([C@@H]2CC[C@@H](c3cc(OC)c(OC)c(OC)c3)O2)cc1S(=O)(=O)CCN(C)C` (relative stereo) [trans-2-[3-(2-N,N-Dimethylaminoethylsulfonyl)-4-n-propoxy-5-(2-hydroxypropoxy)phenyl]-5-(3,4,5-trimethoxyphenyl)tetrahydrofuran], the inhibition is 14%.

For `CCCNCCS(=O)(=O)c1cc([C@@H]2CC[C@@H](c3cc(OC)c(OC)c(OC)c3)O2)cc(OCCC)c1OCCC` (relative stereo) [trans-2-[3-(2-N-Propylaminoethylsulfonyl)-4,5-dipropoxyphenyl]-5-(3,4,5-trimethoxyphenyl) tetrahydrofuran], the inhibition was 33%.

On to `CCCOc1c(OCCCN(C)C)cc([C@@H]2CC[C@@H](c3cc(OC)c(OC)c(OC)c3)O2)cc1S(=O)(=O)CC(C)=O` (relative stereo) [2-[3-(2-Oxopropylsulfonyl)4-n-propoxy-5-{3-(N,N-dimethylamino)-n-propoxy}phenyl]-5-(3,4,5-trimethoxyphenyl)tetrahydrofuran], for which the inhibition came to 17%.

As to `CCCOc1cc([C@@H]2CC[C@@H](c3cc(OC)c(OC)c(OC)c3)O2)cc(S(=O)(=O)CCNC)c1OCCC` (relative stereo) [trans-2-[3-(2-N-Methylaminoethylsulfonyl)-4,5-di-n-propoxyphenyl]-5-(3,4,5-trimethoxyphenyl) tetrahydrofuran], the inhibition stood at 58%.

As to `CCCOc1c(OCCCO)cc([C@H]2CC[C@H](c3cc(OC)c(OC)c(OC)c3)O2)cc1S(=O)(=O)CC(C)N` (relative stereo) [trans-2-[3-(2-Aminopropylsulfonyl)-4-n-propoxy-5-(3-hydroxypropoxy)phenyl]5-(3,4,5-trimethoxyphenyl)tetrahydrofuran], the inhibition stood at 18%.

For the molecule `CCCOc1c(OCC(C)=O)cc([C@@H]2CC[C@@H](c3cc(OC)c(OC)c(OC)c3)O2)cc1S(=O)(=O)CCN(C)C` (relative stereo) [trans-2-[3-(2-N,N-Dimethylaminoethyl-sulfonyl)-4-n-propoxy-5-(2-oxo-propoxyphenyl]-5-(3,4,5-trimethoxyphenyl)tetrahydrofuran], the inhibition was 31%.

As to `CCCOc1c(OCC(C)=O)cc([C@H]2CC[C@H](c3cc(OC)c(OC)c(OC)c3)O2)cc1S(=O)(=O)CC(C)O` (relative stereo) [trans-2-[3-(2-hydroxypropylsulfonyl)-4-n-propoxy-5-(2-oxopropoxy)phenyl]-5-(3,4,5-trimethoxy-phenyl)tetrahydrofuran], the inhibition was 52%.

As for `CCCOc1c(OCC(C)=O)cc([C@H]2CC[C@H](c3cc(OC)c(OC)c(OC)c3)O2)cc1S(=O)(=O)CCO` (relative stereo) [SO2 CH2 CH2OH / CH2 CH2 CH3 / CH2 COCH3, trans-2-[3-(2-Hydroxyethylsulfonyl)-4-n-propoxy-5-(2-oxo-propoxy)phenyl]-5-(3,4,5-trimethoxy-phenyl)tetrahydrofuran], the inhibition worked out at 33%.

In the case of `CCCOc1c(OCCCO)cc([C@H]2CC[C@H](c3cc(OC)c(OC)c(OC)c3)O2)cc1S(=O)(=O)CC(C)O` (relative stereo) [trans-2-[3-(2-hydroxypropylsulfonyl)-4-n-propoxy-5-(3-hydroxypropoxy)phenyl]-5-(3,4,5-trimethoxyphenyl)tetrahydrofuran], the inhibition was 26%.

Consider `CCCOc1cc([C@@H]2CC[C@@H](c3cc(OC)c(OC)c(OC)c3)O2)cc(S(=O)(=O)CCNCC)c1OCCC` (relative stereo) [trans-2-[3-(2-N-Ethylaminoethylsulfonyl)-4,5-dipropoxyphenyl]-5-(3,4,5-trimethoxyphenyl)tetrahydrofuran], for which the inhibition came to 42%.

Take `CCCOc1c(OCCCO)cc([C@@H]2CC[C@@H](c3cc(OC)c(OC)c(OC)c3)O2)cc1S(=O)(=O)CC(C)N(C)C` (relative stereo) [trans-2-[3-(2-N,N-dimethylaminopropyl-sulfonyl)-4-n-propoxy-5-(3-hydroxypropoxy)phenyl]5-(3,4,5-trimethoxyphenyl)tetrahydrofuran]: the inhibition was 23%.

As to `CCCOc1c(OCC(C)=O)cc([C@H]2CC[C@H](c3cc(OC)c(OC)c(OC)c3)O2)cc1S(=O)(=O)CC(C)=O` (relative stereo) [SO2 CH2 COCH3 / CH2 CH2 CH3 / CH2 COCH3, trans-2-[3-(2-Oxopropyl-sulfonyl)-4-n-propoxy-5-(2-oxopropoxy)phenyl]-5-(3,4,5-trimethoxyphenyl)tetrahydrofuran], the inhibition is 65%.
